# Assay results from PubChem BioAssay AID1996.
# Conditions: buffer; pH 7.4; 200.0 µM
row,SMILES,solubility kinetic
1,CCOc1cc(N2CCOCC2)c(OCC)cc1NC(=O)COC(=O)C1CCCN1S(=O)(=O)c1ccccc1F (stereo not given),84.7 µg/mL
2,Cc1ccccc1CN1C(=O)c2ccccc2Sc2ccc(C(=O)O)cc21,51.1 µg/mL
3,Nc1cc(Cl)ccc1C(=O)OCC(=O)NCC1CCCO1 (stereo not given),> 46.9 µg/mL
4,CN1C(=O)CN=C(c2ccc(Cl)cc2)c2cc(Cl)ccc21,> 47.9 µg/mL
5,Cc1cc(C)c2cc(C(=O)Nc3ccc(C)c(F)c3)[nH]c2c1,0.8 µg/mL
6,COC(=O)c1ccc(NC(=O)c2cccc(C)c2)cc1,5.4 µg/mL
7,O=C(COC(=O)Cc1ccc([N+](=O)[O-])cc1)NCc1ccc2c(c1)OCO2,55.5 µg/mL
8,O=C(COC(=O)c1ccc(O)cc1)Nc1ccc2c(c1)OCCO2,21.9 µg/mL
9,N/C(=N\O)c1ccc(Oc2ccccc2Cl)c([N+](=O)[O-])c1,44.1 µg/mL
10,O=C(Nc1ccc(CN2CCOCC2)cc1)c1ccco1,> 42.9 µg/mL
11,Cc1ccc(S(=O)(=O)NCC2(c3ccccc3)CCOCC2)cc1,< 0.7 µg/mL
12,Cc1ccc2oc(C(=O)NCc3ccccc3)cc(=O)c2c1,< 0.6 µg/mL
13,Cc1nc(N)ncc1C(=O)Nc1ccccc1,19 µg/mL
14,CCOc1ccc(CCNC(=O)c2cnccn2)cc1OCC,> 47.3 µg/mL
15,CC(C)C(=O)Nc1oc(-c2ccccc2)cc1C#N,10.5 µg/mL
16,Cc1c(C)c2ccc(OCC(=O)N3CCN(Cc4ccccc4)CC3)cc2oc1=O.Cl,2.5 µg/mL
17,COc1cccc(NC(=S)N2CCN(S(C)(=O)=O)CC2)c1,> 49.4 µg/mL
18,CC(=O)c1cn(Cc2ccccc2C#N)c2ccccc12,7 µg/mL
19,COc1ccc2[nH]c(C(=O)N(C)Cc3ccccc3)c(C)c2c1,9.1 µg/mL
20,CC(=O)c1c(C)[nH]c(C(=O)OCc2cccc(C)c2)c1C,4.2 µg/mL
21,CCOc1ccccc1C(=O)NCC(=O)N1CCC(C)CC1,> 45.7 µg/mL
22,CC(=O)c1ccccc1OCCOc1ncnc2sccc12,> 47.2 µg/mL

row,SMILES,solubility kinetic
1,CCN(C(=O)COC(=O)c1ccccc1O)c1cccc2ccccc12,3.5 µg/mL
2,CC(C)(C)N1C(=O)c2ccc(C(=O)Nc3cc(C(=O)O)cc(C(=O)O)c3)cc2C1=O,51.5 µg/mL
3,COc1ccc(C)cc1NC(=O)Nc1ccc2c(c1)CCC2,0.7 µg/mL
4,COc1ccccc1Cn1c(=S)[nH]c2ccc(F)cc2c1=O,1.6 µg/mL
5,CC(Sc1nncs1)C(=O)Nc1ccc2c(c1)OCCO2 (stereo not given),> 48.5 µg/mL
6,NC(=O)NC(=O)COC(=O)c1cccnc1Nc1ccccc1F,4.6 µg/mL
7,COc1ccc(CSC2=CS(=O)(=O)c3ccccc3N2)cc1,9.8 µg/mL
8,Cc1cccc(N2C(=O)/C(=C/c3ccccn3)SC2=S)c1,< 0.3 µg/mL
9,C#CCN1C(=O)S/C(=C\c2ccc(-c3ccc(C(=O)O)cc3C)o2)C1=O,35 µg/mL
10,CC(O)c1nc2ccccc2n1Cc1ccccc1 (stereo not given),35.6 µg/mL
11,Cc1ccc(NC(=O)COC(=O)c2cccnc2)c(C)c1,> 42.6 µg/mL
12,O=C1Nc2ccc(S(=O)(=O)NCC3CCCO3)c3cccc1c23 (stereo not given),> 49.9 µg/mL
13,CCN(CC)S(=O)(=O)c1ccc(NC(=O)c2ccc(N3CCCC3=O)cc2)cc1,5 µg/mL
14,COC(=O)c1cn(C(=O)c2cc(OC)cc(OC)c2)c2ccccc12,3.4 µg/mL
15,CCc1nc(=O)c(-c2ccccc2)c(C)n1-c1ccccc1,> 43.6 µg/mL
16,COCCCN(CC(=O)O)S(=O)(=O)c1ccccc1,> 43.1 µg/mL
17,Cl.NCCSC1CC(=O)N(c2ccc(Cl)c(Cl)c2)C1=O (stereo not given),32.8 µg/mL
18,CC1CCN(c2ccc(C(F)(F)F)cc2N)CC1,< 0.3 µg/mL
19,Cc1ccc(OC(C)C(=O)N2CC(=O)Nc3ccccc32)cc1 (stereo not given),> 46.6 µg/mL
20,Cc1cc(C2CC(=O)Nc3ccccc3S2)c(C)s1 (stereo not given),< 0.6 µg/mL
21,CCOC(=O)CCNC(=O)N1CCCC(C(=O)c2ccccc2SC)C1 (stereo not given),> 56.8 µg/mL
22,CCOc1cc(N2CCOCC2)c(OCC)cc1NC(=O)C(C)(C)C,> 52.6 µg/mL

row,SMILES,solubility kinetic
1,COc1cccc(CC(=O)NC2CCSc3ccccc32)c1 (stereo not given),20.9 µg/mL
2,O=C(Nc1ccc2c(c1)OCCO2)c1ccc(Br)cc1,< 0.7 µg/mL
3,Cc1ccc(NC(=O)CN2C(=O)S/C(=C/c3ccncc3)C2=O)cc1,2.2 µg/mL
4,O=C(NCCCNC(=O)c1cc(Cl)ccc1Cl)c1cnccn1,45.4 µg/mL
5,Cc1ccc(N=C2C(=O)Nc3ccccc32)cc1,30.5 µg/mL
6,CCC1CCCCN1C(=O)CCS(=O)(=O)c1ccccc1 (stereo not given),> 46.4 µg/mL
7,N#Cc1cccc(C#N)c1NCC1CCCO1 (stereo not given),> 34.1 µg/mL
8,CN(C)/C(=N\S(=O)(=O)c1ccccc1)c1ccccc1,> 43.3 µg/mL
9,O=C(NN1CCOCC1)c1ccccc1F,> 33.6 µg/mL
10,Cc1ccc(SCCC(=O)OC(C(=O)NC(N)=O)C(C)C)cc1 (stereo not given),7 µg/mL
11,COCCn1c(-c2ccc(F)cc2)nc2oc3cc(OC)ccc3c(=O)c2c1=O,21.1 µg/mL
12,COc1ccccc1/C=C/C(=O)OCC(=O)NCc1ccc2c(c1)OCO2,6.3 µg/mL
13,O=C(Nc1ccccc1C(=O)Nc1ccc(Cl)cc1)c1cccnc1,0.6 µg/mL
14,O=C(COc1ccccc1Cl)Nc1ccc2[nH]c(=O)[nH]c2c1,2 µg/mL
15,Cc1c(C(=O)Nc2ccccn2)oc2c(Cl)cccc12,9.4 µg/mL
16,COc1ccc(CNC(=O)COC(=O)c2ccc(S(=O)(=O)N3CCOCC3)cc2)cc1,9.2 µg/mL
17,CS(=O)(=O)c1ccc(C(=O)N2CCc3ccccc3C2)cc1,> 47.3 µg/mL
18,Cc1ccc(NC(=O)COC(=O)C2CCC2)cc1S(=O)(=O)N1CCOCC1,> 59.5 µg/mL
19,O=C(NC(=S)Nc1ccc(CN2CCOCC2)cc1)c1cccc(F)c1,27 µg/mL
20,O=C(c1ccc([N+](=O)[O-])cc1)N1CCN=C1SCc1ccccc1,17.4 µg/mL
21,O=C1C(=O)N(CC(=O)N2CCCC2)c2ccccc21,38.2 µg/mL
22,COc1cccc(NC(=O)C2CCOC2=O)c1 (stereo not given),> 35.3 µg/mL

row,SMILES,solubility kinetic
1,COc1ccc(-c2nc3n(c2C)Cc2ccccc2-3)cc1,16.3 µg/mL
2,CCN(CC(=O)NCc1ccco1)S(=O)(=O)c1ccc(F)cc1,> 51.1 µg/mL
3,O=C(CN1C(=O)NC2(CCc3ccccc32)C1=O)c1ccccc1 (stereo not given),40.1 µg/mL
4,O=C(Nc1ccc2c(c1)OCCO2)c1ccccc1,> 38.3 µg/mL
5,CCc1sc(C(=O)Nc2ccc(N3CCOCC3)cc2)cc1C,8.1 µg/mL
6,O=C(N1CCOCC1)N1CCN(S(=O)(=O)c2ccc(Cl)cc2)C1,44.5 µg/mL
7,CN1CCN(C(=O)C2CC(=O)N(c3ccc(Cl)cc3)C2)CC1 (stereo not given),42.7 µg/mL
8,Cc1nc(C)c(C(=O)O)c(-c2cccs2)c1C(=O)O,> 41.6 µg/mL
9,CCOc1cc(C(=O)N=c2sccn2C)ccc1OC(F)F,45.4 µg/mL
10,Cn1c(=O)c2ccccc2n(CC(=O)NC2CCCCC2)c1=O,8 µg/mL
11,O=C(CN1C(=O)COc2ccccc21)NCCN1CCCC1,> 45.5 µg/mL
12,Cc1nc2ccccn2c(=O)c1NC(=O)c1cccs1,> 42.8 µg/mL
13,C/C(=N\NC(=O)c1cc(C)nc2ccccc12)c1ccccn1,> 45.7 µg/mL
14,O=C(Nc1ccccc1)C1CCOC1=O (stereo not given),26.3 µg/mL
15,COc1ccc(C2C(C#N)=C(C)NC(C)=C2C#N)c(OC)c1,4.6 µg/mL
16,S=C(CN1CCCC1=S)N1CCOCC1,> 36.7 µg/mL
17,COc1nc(C)ccc1-c1noc(-c2cccs2)n1,2.5 µg/mL
18,CC(=O)c1ccc(N=C2C(=O)Nc3ccccc32)cc1,36.6 µg/mL
19,COC(=O)c1cc2occc2n1Cc1nc(-c2ccccc2F)oc1C,1.4 µg/mL
